# Results taken from patent publication US5567710A, “Polycyclic fused ring modulators of acetylcholine receptors” (SIBIA Neurosciences, Inc., priority 1994, dated 1996).
# Read-outs that look alike come from different tables or passages of the source.
# Legend:
# [1] = target: T1, acetylcholine receptor (rat cerebral membranes) (Rattus norvegicus, UniProt P09483+P12390); assay: 3H-cyt (cytisine) displacement from rat cerebral membranes; assay type: binding; settings: 3H-cyt displacement
# T1 construct: Synaptic membranes were prepared by homogenizing the cortical tissue; from tissue; host or cells: cerebral cortex synaptic membranes of male Sprague-Dawley rats
# [2] = target: acetylcholine receptor (rat cerebral membranes); assay type: binding; settings: 3H-QNB displacement
# [3] = target: T1, acetylcholine receptor (rat cerebral membranes); assay: 3H-MCC (methylcarbamylcholine) displacement from rat cerebral membranes; assay type: binding; settings: 3H-MCC displacement
# [4] = target: T1, acetylcholine receptor (rat cerebral membranes); assay: 3H-nicotine displacement from rat cerebral membranes; assay type: binding; settings: 3H-nicotine (1.9 nM) displacement, atropine 3 μM
# [5] = tested on: rats with unilateral 6-hydroxydopamine lesions of the nigro-striatal dopamine pathway; assay type: in vivo, rat
# Method: The effects of invention compounds on turning behavior of rats with unilateral 6-hydroxydopamine lesions in the striatum were evaluated using the procedure of Ungerstedt and Arbutknott Brain Res. 24:485-493 (1970). Rats were injected with desmethylimipramine (25 mg/kg i.p.) and pargyline (75 mg/kg i.p.) approximately 30 minutes prior to 6-hydroxydopamine infusion into the substantia nigra. Results reported in the Table are measured as the maximal rotation per 15-min interval toward the lesioned side of the striatum.
# [6] = tested on: rat thalamus slices; assay type: cell-based
# Method: (§1) Measurement of ^3 H-dopamine release from rat striatal slices was performed according to the method of Sacaan et al. (J. Neurochem. 59:245 (1992)). Male Sprague-Dawley rats (250-300 g) were decapitated and the striata dissected quickly on a cold glass surface. The tissue was chopped to a thickness of 300 μm with a McIlwain tissue chopper. After chopping again at right angles the tissue was dispersed and incubated for 10 min. at 37° C. in oxygenated Kreb's buffer. ^3 H-Dopamine (40 Ci/mmol, NEN-Dupont, Boston, Mass.) was added (50 nM) and the tissue was incubated for 30 min. in Kreb's buffer containing 10 μM pargyline and 0.5 mM ascorbic acid. Aliquots of the minced tissue were then transferred to chambers of a Brandel Superfusion system in which the tissue was supported on Whatman GF/B filter discs. The tissue was then superfused with buffer at a constant flow rate of 0.3 ml/min. by means of a Brandel peristaltic pump. The perfusate was collected in plastic scintillation vials in 3-min. fractions, and the radioactivity was estimated by scintillation spectrophotometry. The superfusate for the first 120 min. was discarded. After two baseline fractions had been collected, the superfusion buffer was switched to fresh buffer with or without compound of interest. At the end of the experiment the filter and the tissue were removed, and the ^3 H-dopamine content was estimated after extraction into scintillation fluid. The fractional efflux of tritium was estimated as the amount of radioactivity in the perfusate fraction relative to the total amount in the tissue.
# (§2) Following essentially the same procedure as set forth in the preceding paragraph, the amount of ^3 H-norepinephrine released from rat hippocampus and thalamus slices superfused with buffer containing (or lacking) compounds of interest was also measured.
# (§3) The results of studies of the effects of an invention compound (as compared to the effect of nicotine and cytisine) on the release of neurotransmitters from rat brain slices are presented in Table II. The results presented in the Table are expressed as the percent fractional release.
# [7] = tested on: rat hippocampus slices; assay type: cell-based
# Method: as §1, §2, §3
# [8] = tested on: rat striatal slices; assay type: cell-based
# Method: as §1, §3
# [9] = tested on: haloperidol-induced catalepsy in rats; assay: Haloperidol-induced catalepsy model in rats; assay type: in vivo, rat; settings: s.c.; for Reduction in catalepsy (maximum): haloperidol 2 mg/kg i.p., vs haloperidol alone
# [10] = tested on: tail flick in rats; assay type: in vivo, rat
# Method: The effects of invention compounds on latency in the time between stimulus application and tail flick in rats were evaluated using the procedure of D'Amour and Smith, J. Pharmacol. Exp. Ther. 72:74-79 (1941). Male rats (150-200g; Harlan, San Diego, Calif.) were acclimated to investigator's handling by taking two-to-three tail-flick latencies. The animals were held by hand such that the tail is placed in the groove of the Tail-Flick meter (IITC Life Sciences, Woodland Hill, Calif., Model 33). The light was focused 3-4 cm from the tip of the tail by a foot-operated switch. The intensity of the incident beam was adjusted to give baseline latencies in the range of 1-4 seconds. Groups of 5-6 rates were used in each treatment. The tail-flick latencies were recorded to the nearest 0.1 seconds and a cut-off time of 10 seconds was established to prevent thermal injury. The results of one such study are shown in Table V. Results presented in the Table are expressed as the percent of the maximum latency to remove the tail from the light beam. Maximum latency is 10 seconds.
# T1 sequence (P09483 31-630): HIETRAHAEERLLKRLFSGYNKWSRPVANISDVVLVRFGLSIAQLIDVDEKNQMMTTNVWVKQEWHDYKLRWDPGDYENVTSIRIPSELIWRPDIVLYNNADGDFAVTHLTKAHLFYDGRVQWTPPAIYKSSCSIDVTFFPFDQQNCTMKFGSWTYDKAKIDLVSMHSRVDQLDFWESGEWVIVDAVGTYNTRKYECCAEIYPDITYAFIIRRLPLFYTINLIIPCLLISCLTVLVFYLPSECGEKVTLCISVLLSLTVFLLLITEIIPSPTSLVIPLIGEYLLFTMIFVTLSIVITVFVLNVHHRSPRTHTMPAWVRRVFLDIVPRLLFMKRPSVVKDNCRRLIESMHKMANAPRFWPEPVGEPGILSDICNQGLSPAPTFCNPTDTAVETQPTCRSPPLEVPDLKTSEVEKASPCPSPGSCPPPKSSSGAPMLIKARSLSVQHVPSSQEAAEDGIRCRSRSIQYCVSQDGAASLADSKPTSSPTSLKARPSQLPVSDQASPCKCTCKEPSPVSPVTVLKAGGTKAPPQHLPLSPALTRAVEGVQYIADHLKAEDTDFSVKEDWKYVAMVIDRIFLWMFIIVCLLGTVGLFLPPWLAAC
# T1 sequence (P12390 25-500): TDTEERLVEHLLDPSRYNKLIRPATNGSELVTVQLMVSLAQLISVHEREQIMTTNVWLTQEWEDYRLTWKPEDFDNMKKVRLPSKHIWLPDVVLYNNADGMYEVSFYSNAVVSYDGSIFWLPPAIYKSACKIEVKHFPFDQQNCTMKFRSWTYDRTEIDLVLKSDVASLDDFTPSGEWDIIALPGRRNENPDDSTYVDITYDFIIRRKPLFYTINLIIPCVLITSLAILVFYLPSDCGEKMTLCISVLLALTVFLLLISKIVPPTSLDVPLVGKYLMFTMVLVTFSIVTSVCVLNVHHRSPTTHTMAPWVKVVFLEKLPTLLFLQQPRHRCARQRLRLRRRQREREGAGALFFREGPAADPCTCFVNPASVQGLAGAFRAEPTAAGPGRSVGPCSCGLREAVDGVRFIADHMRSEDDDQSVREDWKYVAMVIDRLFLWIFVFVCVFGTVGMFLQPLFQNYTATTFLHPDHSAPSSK
structure (smiles),measurement,setting,value
COc1cc2c(cn1)C1C(CC2)CCN1C (centres unmarked),IC50,[1],27.5 µM
same,IC50,[2],9 µM
same,IC50,[3],5.5 µM
same,IC50,[4],10.7 µM
c1cc2c(cn1)C1NCCC1CO2 (centres unmarked),IC50,[1],2 µM
same,IC50,[3],0.61 µM
same,IC50,[4],0.51 µM
COc1cc2c(cn1)C1NCCC1CC2 (centres unmarked),IC50,[1],5.4 µM
same,Range of activity (maximal rotation per 15-min interval toward the lesioned side of the striatum),"[5]; 10 mg/kg, s.c.",9-50 rotation per 15-min interval
same,Turning towards the 6-hydroxydopamine-lesioned side (in words),"[5]; 10 mg/kg, s.c.",induces turning towards the 6-hydroxydopamine-lesioned side of the rat striatum
same,IC50,[2],6 µM
same,"3H-norepinephrine thalamus, percent fractional release",[6]; 300 μM,2.2%
same,"3H-norepinephrine hippocampus, percent fractional release",[7]; 300 μM,0.69%
same,IC50,[3],0.8 µM
same,"3H-dopamine striatum, percent fractional release",[8]; 300 μM,2.2%
same,Release of catecholamines from rat brain slices (in words),"[8]; striatum (dopamine), hippocampus and thalamus (norepinephrine)",selectively induces release of catecholamines in different brain regions
same,Cataleptogenic effect of haloperidol in rats (in words),[9]; 3 mg/kg,reduces the cataleptogenic effect of haloperidol in rats
same,Reduction in catalepsy (maximum),[9]; 3 mg/kg,34%
same,IC50,[4],1.9 µM
same,Duration of effect,"[10]; 30 mg/kg, p.o.",> 180 min
same,Latency between application of stimulus and tail-flick response (in words),"[10]; 30 mg/kg, p.o., as compared to nicotine","increased the latency period, as compared to nicotine"
same,% maximum possible effect,"[10]; 30 mg/kg, p.o., maximum latency 10 seconds",52%
same,Duration of effect versus morphine (in words),"[10]; rat, in vivo",longer duration than the effect of morphine
"CC(N)Cc1ccccc1 (centres unmarked) [AMPHETAMINE, reference compound]",Range of activity (maximal rotation per 15-min interval toward the lesioned side of the striatum),"[5]; 5 mg/kg, s.c.",50-200 rotation per 15-min interval
"O=c1cccc2n1C[C@@H]1CNC[C@H]2C1 [CYTISINE, cytisine]","3H-norepinephrine thalamus, percent fractional release",[6]; 100 μM,2.9%
same,"3H-norepinephrine hippocampus, percent fractional release",[7]; 100 μM,4.3%
same,"3H-dopamine striatum, percent fractional release",[8]; 100 μM,0.96%
"CN1CC[C@]23c4c5ccc(O)c4O[C@H]2[C@@H](O)C=C[C@H]3[C@H]1C5 [Morphine, reference compound]",% maximum possible effect,"[10]; 2 mg/kg, s.c., maximum latency 10 seconds",100%
"CN1CCCC1c1cccnc1 (centres unmarked) [NICOTINE, nicotine, reference compound]",Range of activity (maximal rotation per 15-min interval toward the lesioned side of the striatum),"[5]; rat, in vivo",6-50
same,"3H-norepinephrine thalamus, percent fractional release",[6],2.9
same,"3H-norepinephrine hippocampus, percent fractional release",[7],4.1
same,"3H-dopamine striatum, percent fractional release",[8],1.80
same,Reduction in catalepsy (maximum),[9]; 2 mg/kg,21%
same,% maximum possible effect,"[10]; rat, in vivo",38%
same,Duration of effect,"[10]; rat, in vivo",60 min
